From patent US8962688B2, “Method for the treatment of gastrointestinal disorders” (Sucampo AG, priority 2005, dated 2015)

Columns and labels:
[1] = test system: gastric ulcer induced by water-immersion stress; assay: Gastric ulcer induced by water-immersion stress (5 hours) in rats, single and combined treatment; format: in vivo, rat; details: for Inhibition of the gastric ulcer: result in words, summary of Table 4
Protocol: Wistar rats were used after an overnight fast with free access to water. Compound 1 (13,14-dihydro-15-keto-16,16-difluoro-PGE1) or Compound 2(13,14-dihydro-15-keto-16,16-difluoro-18(s) methyl-PGE1) was orally administered to the animals. When the effect of combined treatment with Compound 1 and proton pump inhibitor (lansoprazole or omeprazole) was evaluated, Compound 1 and proton pump inhibitor were orally administered simultaneously. Control group received the same volume of the vehicle. Ten minutes after the administration, the animals were placed in stress cages and were vertically immersed to the xiphoid process in a water bath maintained at 23° C. Five hours later, each animal was taken out from the cage and sacrificed by CO2 asphyxiation. The stomach was removed after ligating the cardiac region of stomach and the upper part of duodenum. The stomach was filled with 4 mL of physiological saline solution, and fixed in 1% formalin solution for 30 minutes. The stomach was opened along the greater curvature. The length (mm) of the individual ulcer was measured and the ulcer index was expressed as the sum of the lengths of all ulcers per stomach.

[2] = test system: rabbit platelet aggregation induced with ADP; assay: Rabbit platelet aggregation induced with ADP; format: cell-based; details: for % Inhibition / Maximum aggregation: 10^−7 g/mL, platelet-rich plasma; for Maximum aggregation: mean ± SE, n=3; for Effect on the platelet aggregation: result in words, summary of Table 3
Protocol: Blood was collected from rabbits of the JW/CSK strain and citrated by mixing with sodium citrate in a ratio of 9 volumes of blood to 1 volume of 3.8% sodium citrate solution. Platelet-rich plasma (PRP) was obtained by centrifugation of the citrated blood at 1000 rpm (168×g) for 10 minutes. After collection of PRP, residual blood was further centrifuged at 3000 rpm (1670×g) for 15 minutes, and the supernatant was used as platelet-poor plasma (PPP). After pre-incubation of PRP (200 μL) with each test solution (25 μL) for 1 minutes at 37° C., 25 μL of platelet aggregation agent (ADP […]) was added. Platelet aggregation was measured with a platelet aggregation meter (HEMATRACER PAT-4A, Niko Bioscience, Inc.). Each test solution was examined with 3 different animal source platelets in duplicate fashion. Inhibition percent was calculated by comparing with the maximal aggregation with the saline-treatment group.

[3] = test system: stress-induced stomach ulcers; assay: Stress-induced (water immersion, 6 hours) stomach ulcers in rats; format: in vivo, rat; details: for Ulcer index (sum of lengths of each individual ulcer): mean ± SE
Protocol: Each group of test animals used consisted of 9 or 10 male rats of the Crj: Wistar strain. The animals were fasted for 24 hours before the oral administration of the test sample. Ten minutes after the oral administration of various doses of the Compound 1 (13,14-dihydro-15-keto-16,16-difluoro-PGE1) or the vehicle, each animal was put in a narrow cage, and was immersed in water (23° C.) up to the height of the xipoid process for 6 hours. The animals were then euthanized. The stomach was removed and the maximum length of the longest axis of each stomach ulcer was measured. The ulcer index was calculated as the sum of lengths of each individual ulcer.

[4] = test system: indomethacin-induced stomach ulcers; assay: Indomethacin-induced stomach ulcers in rats; format: in vivo, rat
Protocol: Each group of test animals used consisted of 10 male rats of the Crj: Wistar strain. The animals were fasted for 24 hours before the oral administration of the Compound 1 (13,14-dihydro-15-keto-16,16-difluoro-PGE1) or the vehicle. Ten minutes after the oral administration of the test sample or the vehicle, all rats received a 20 mg/kg oral dose of indomethacin. The animals were euthanized 6 hours later. The stomach was removed and the length of the longest axis of each stomach ulcer was measured. The ulcer index was calculated as the sum of the lengths of each individual ulcer.

[5] = test system: total acid output; assay: Total gastric acid output in pylorus-ligated rats; format: in vivo, rat; details: oral, 30 min before pyloric ligation; 4 hours output; compared to vehicle-treated control (FIG. 1)
Protocol: The study was conducted according to the method described by Wong et al (Pharmacol. Soc. 32:49-56, 1989). Each group of test animals used consisted of 6 male rats of the Crj: Wistar strain. The animals were fasted for 24 hours with free access to water. Each dose formulation of Compound 1 (13,14-dihydro-15-keto-16,16-difluoro-PGE1), saline and medium chain fatty acid triglyceride (MCT) was orally administered 30 minutes before pyloric ligation. For positive control, the animals were received pentagastrin, a known gastric acid stimulator, subcutaneously at 2000 μg/kg. Under ether anesthesia, the abdomen was opened through a midline incision, the pylorus ligated with 3-0 silk suture, and the abdomen closed. The animals were kept without diet and water thereafter. Four hours after pyloric ligation, the animals were euthanized by cervical dislocation and the abdomen opened. The gastric contents were collected into sterile centrifuge tubes, and centrifuged at 3000 rpm for 10 minutes to remove solid materials. The supernatant was collected and the volume measured. A 1 mL aliquot of each gastric fluid sample was titrated to pH 7.0 with 0.01 N sodium hydroxide using an automatic […], Co., Ltd., Japan) to determine the acidity (mEq H^+/mL) Total output of gastric acid for 4 hours was calculated

CC[C@H](C)CC(F)(F)C(=O)CC[C@H]1[C@H](O)CC(=O)[C@@H]1CCCCCCC(=O)O [Compound 2, 13,14-dihydro-15-keto-16,16-difluoro-18(s) methyl-PGE1]
Inhibition ([1]; 10 μg/kg p.o.): 21%
Ulcer Index Mean ± S.E. ([1]; 10 μg/kg p.o.): 12.6 ± 2.2 mm
Inhibition ([1]; 30 μg/kg p.o.): 36%
Ulcer Index Mean ± S.E. ([1]; 30 μg/kg p.o.): 10.2 ± 2.0 mm
Inhibition ([1]; 100 μg/kg p.o.): 85%
Ulcer Index Mean ± S.E. ([1]; 100 μg/kg p.o.): 2.4 ± 0.9 mm
Inhibition of the gastric ulcer [1]: dose-dependent manner

CCCCC(F)(F)C(=O)CCC1C(O)CC(=O)C1CCCCCCC(=O)O (stereo not shown) [Compound 1, 13,14-dihydro-15-keto-16,16-difluoro-PGE1]
% Inhibition [2]: 0%
Maximum aggregation [2]: 49.5 ± 2.5%
Effect on the platelet aggregation [2]: no effect
% Inhibition ([3]; 3 μg/kg po): 9.2%
Ulcer index (sum of lengths of each individual ulcer) ([3]; 3 μg/kg po): 26.6 ± 3.7
% Inhibition ([3]; 10 μg/kg po): 20.1%
Ulcer index (sum of lengths of each individual ulcer) ([3]; 10 μg/kg po): 23.4 ± 4.7
% Inhibition ([3]; 30 μg/kg po): 54.3%
Ulcer index (sum of lengths of each individual ulcer) ([3]; 30 μg/kg po): 13.4 ± 2.0
% Inhibition ([3]; 100 μg/kg po): 85.3%
Ulcer index (sum of lengths of each individual ulcer) ([3]; 100 μg/kg po): 4.3 ± 1.9
Protection against stress-induced ulcer formation ([3]; result in words, summary of Table 2): protection significantly
Inhibition ([1]; 10 μg/kg p.o.): 23%
Ulcer Index Mean ± S.E. ([1]; 10 μg/kg p.o.): 12.2 ± 1.9 mm
Inhibition ([1]; 30 μg/kg p.o.): 36%
Ulcer Index Mean ± S.E. ([1]; 30 μg/kg p.o.): 10.1 ± 1.6 mm
Inhibition ([1]; 100 μg/kg p.o.): 91%
Ulcer Index Mean ± S.E. ([1]; 100 μg/kg p.o.): 1.4 ± 0.6 mm
Inhibition of the gastric ulcer [1]: dose-dependent manner
Ulcer index (sum of lengths of each individual ulcer) ([4]; 2 μg/kg po, 10 min before indomethacin 20 mg/kg po, mean ± SE): 27.9 ± 5.1
% Inhibition ([4]; 2 μg/kg po, versus vehicle control): 44%
Protection against indomethacin-induced ulcer formation ([4]; result in words, summary of Table 1): significant protection
Effect on total acid output [5]: did not affect

COc1ccc2[nH]c([S+]([O-])Cc3ncc(C)c(OC)c3C)nc2c1 (stereo not shown) [Omeprazole, omeprazole, reference compound]
Ulcer Index Mean ± S.E. ([1]; Omeprazole 3000 μg/kg p.o. alone): 5.9 ± 0.9 mm
inhibition at 3 mg/kg ([1]; Rattus norvegicus, po, Omeprazole 3000 μg/kg p.o. alone): 31%

Cc1c(OCC(F)(F)F)ccnc1C[S+]([O-])c1nc2ccccc2[nH]1 (stereo not shown) [Lansoprazole, lansoprazole, reference compound]
Ulcer Index Mean ± S.E. ([1]; Lansoprazole 1000 μg/kg p.o. alone): 4.6 ± 1.2 mm
inhibition at 1 mg/kg ([1]; Rattus norvegicus, po, Lansoprazole 1000 μg/kg p.o. alone): 46%

CCCCC[C@H](O)/C=C/[C@H]1[C@H](O)CC(=O)[C@@H]1CCCCCCC(=O)O [PGE1, prostaglandin E1, reference compound]
% Inhibition [2]: 73%
Maximum aggregation [2]: 23.3 ± 1.9 %
Effect on the platelet aggregation [2]: significantly inhibited
